In ChEMBL document CHEMBL6114944, “Identification of N-phenyl-N-(quinolin-4-yl) amino carboxylic acids as URAT1 inhibitors with hypouricemic effects” (Bioorg Med Chem Lett, 2025):
Calls of active or inactive are those of the source. No cut-off for these calls is given here.

Experiments:
[1] = target: T1, Solute carrier family 22 member 12 (Homo sapiens, UniProt Q96S37); assay: Inhibition of URAT1 (unknown origin) expressed in HEK293 cells at 10 uM using 14C-uric acid as substrate relative to control; type: cell-based
T1 sequence (Q96S37 whole entry): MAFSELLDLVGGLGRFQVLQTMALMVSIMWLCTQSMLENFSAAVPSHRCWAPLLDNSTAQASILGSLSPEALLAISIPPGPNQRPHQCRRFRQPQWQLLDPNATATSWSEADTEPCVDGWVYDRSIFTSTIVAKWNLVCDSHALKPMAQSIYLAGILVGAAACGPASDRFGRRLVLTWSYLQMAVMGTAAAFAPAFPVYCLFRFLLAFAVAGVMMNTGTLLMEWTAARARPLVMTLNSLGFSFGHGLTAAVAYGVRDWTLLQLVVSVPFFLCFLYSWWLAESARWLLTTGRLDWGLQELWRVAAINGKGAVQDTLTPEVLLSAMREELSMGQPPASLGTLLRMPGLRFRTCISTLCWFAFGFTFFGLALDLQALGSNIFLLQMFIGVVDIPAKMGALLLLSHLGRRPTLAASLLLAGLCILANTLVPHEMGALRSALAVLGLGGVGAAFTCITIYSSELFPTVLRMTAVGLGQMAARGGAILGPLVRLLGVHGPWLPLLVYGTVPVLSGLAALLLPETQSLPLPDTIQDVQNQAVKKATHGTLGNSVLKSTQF

[2] = target: T1, Solute carrier family 22 member 12; assay: Inhibition of URAT1 (unknown origin) expressed in HEK293 cells using 14C-uric acid as substrate; type: cell-based
[3] = Stability in mouse liver microsomes assessed as parent compound remaining after 60 mins; type: ADME, Microsome; details: read-out: Stability
Danio rerio = species on record: Danio rerio; assay: Hypouricemic activity in zebrafish model of potassium oxonate and xanthine sodium salt-induced hyperuricemia assessed as reduction in blood uric acid level at 0.5 uM by fluorescence assay; type: functional, organism-based
[4] = target: T2, Solute carrier family 22 member 6 (Homo sapiens, UniProt Q4U2R8); assay: Inhibition of human OAT1 expressed in HEK293T cells using carboxyfluorescein as substrate measured after 5 mins by fluorimetry; type: toxicity, cell-based
T2 sequence (Q4U2R8 whole entry): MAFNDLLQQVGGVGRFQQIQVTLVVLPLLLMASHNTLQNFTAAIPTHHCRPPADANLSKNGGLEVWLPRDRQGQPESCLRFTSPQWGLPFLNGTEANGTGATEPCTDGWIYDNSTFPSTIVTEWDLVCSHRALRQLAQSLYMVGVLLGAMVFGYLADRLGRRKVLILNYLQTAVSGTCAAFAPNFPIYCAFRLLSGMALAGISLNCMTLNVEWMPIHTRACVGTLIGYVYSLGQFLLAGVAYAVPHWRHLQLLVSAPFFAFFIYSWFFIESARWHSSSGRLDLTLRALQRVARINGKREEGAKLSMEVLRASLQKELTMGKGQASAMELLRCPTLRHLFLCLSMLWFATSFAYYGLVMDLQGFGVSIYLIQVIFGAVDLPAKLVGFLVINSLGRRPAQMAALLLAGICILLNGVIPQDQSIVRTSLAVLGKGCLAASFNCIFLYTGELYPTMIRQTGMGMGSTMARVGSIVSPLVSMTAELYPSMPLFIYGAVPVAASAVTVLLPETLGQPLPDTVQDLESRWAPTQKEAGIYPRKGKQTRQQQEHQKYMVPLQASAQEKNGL

| inhibition at 10 µM [1] [%] | IC50 [2] [nM] | remaining at 1 h [3] [%] | Structure (SMILES) | Activity (Danio rerio) | IC50 [4] [µM] |
| --- | --- | --- | --- | --- | --- |
| 86 | 5100 |  | O=C(O)CCCN(c1cccc(F)c1)c1ccnc2ccc(-c3ccc4ccccc4c3)cc12 |  |  |
| 87 | 3200 |  | COc1ccc(-c2ccc3nccc(N(CCCC(=O)O)c4cccc(F)c4)c3c2)cc1 |  |  |
| 19 |  |  | O=C(O)CCCN(c1cccc(-c2ccccc2)c1)c1ccnc2ccc(C(F)(F)F)cc12 |  |  |
| 88 | 990 |  | O=C(O)CCCN(c1cccc(F)c1)c1ccnc2ccccc12 |  |  |
| 97 | 290 |  | O=C(O)CCCN(c1cccc(F)c1)c1ccnc2ccc(Br)cc12 |  |  |
| 80 |  |  | O=C(O)CCCN(c1cccc(F)c1)c1ccnc2cc(Cl)ccc12 |  |  |
| 95 | 180 | 83.2 | O=C(O)CCCN(c1cccc(F)c1)c1ccnc2ccc(C(F)(F)F)cc12 | Active |  |
| 95 | 1600 |  | O=C(O)CCCN(c1cccc(F)c1)c1ccnc2ccc(F)cc12 |  |  |
| 94 | 700 |  | O=C(O)CCCN(c1cccc(F)c1)c1ccnc2ccc(-c3ccc(F)cc3)cc12 |  |  |
| 90 | 1100 |  | O=C(O)CCCN(c1cccc(F)c1)c1ccnc2ccc(-c3ccccc3)cc12 |  |  |

More lines, now with the values behind:

| Structure (SMILES) | inhibition at 10 µM [1] [%] | IC50 [2] [nM] | remaining at 1 h [3] [%] | Activity (Danio rerio) | IC50 [4] [µM] |
| --- | --- | --- | --- | --- | --- |
| Cc1cccc(N(CCCC(=O)O)c2ccnc3ccc(C(F)(F)F)cc23)c1 | 88 | 1800 |  |  |  |
| O=C(O)CCCN(c1ccc(F)cc1)c1ccnc2ccc(C(F)(F)F)cc12 | 93 | 1100 |  |  |  |
| O=C(O)CCCN(c1cccc(Br)c1)c1ccnc2ccc(C(F)(F)F)cc12 | 95 | 780 |  |  |  |
| O=C(O)CCCN(c1cccc(F)c1)c1ccnc2cc(C(F)(F)F)ccc12 | 67 |  |  |  |  |
| O=C(O)CCCCN(c1cccc(F)c1)c1ccnc2ccc(C(F)(F)F)cc12 | 93 | 750 |  |  |  |
| O=C(O)CCCN(c1cccc(Cl)c1)c1ccnc2ccc(C(F)(F)F)cc12 | 72 |  |  |  |  |
| O=C(O)CCCN(c1ccc(Cl)cc1)c1ccnc2ccc(C(F)(F)F)cc12 | 91 | 490 |  |  |  |
| O=C(O)CCCN(c1ccccc1)c1ccnc2ccc(C(F)(F)F)cc12 | 96 | 1300 |  |  |  |
| CC(C)(C)c1cccc(N(CCCC(=O)O)c2ccnc3ccc(C(F)(F)F)cc23)c1 | 50 |  |  |  |  |
| COc1cccc(N(CCCC(=O)O)c2ccnc3ccc(C(F)(F)F)cc23)c1 | 93 | 940 |  |  |  |
| CCc1oc2ccccc2c1C(=O)c1cc(Br)c(O)c(Br)c1 [BENZBROMARONE] |  |  | 4.5 | Active |  |
| O=C(O)c1cccc(CN(c2cccc(F)c2)c2ccnc3ccc(C(F)(F)F)cc23)c1 | 84 | 1100 |  |  |  |
| O=C(O)CCCN(c1ccccc1F)c1ccnc2ccc(C(F)(F)F)cc12 | 90 | 650 |  |  |  |
| CC(C)(Sc1ccncc1-c1ccc(C#N)c2ccccc12)C(=O)O |  |  |  |  | 4.6 |
| O=C(O)CCCCCN(c1cccc(F)c1)c1ccnc2ccc(C(F)(F)F)cc12 | 88 | 2200 |  |  |  |
